The text below walks through data of patent US5872281A, “Amino acid derivative having N,N-dialkylaminophenyl group” (Santen Pharmaceutical Co., Ltd., priority 1995, dated 1999).

In the first test the target is T1, LTA4 hydrolase (Cavia porcellus, UniProt P19602).
T1 construct: prepared by extracting roughly from guinea pig lung; from tissue; host or cells: guinea pig (Hartley) lung, 100,000×g supernatant, 40-70% ammonium sulfate fraction, dialyzed
T1 sequence (P19602 1-611): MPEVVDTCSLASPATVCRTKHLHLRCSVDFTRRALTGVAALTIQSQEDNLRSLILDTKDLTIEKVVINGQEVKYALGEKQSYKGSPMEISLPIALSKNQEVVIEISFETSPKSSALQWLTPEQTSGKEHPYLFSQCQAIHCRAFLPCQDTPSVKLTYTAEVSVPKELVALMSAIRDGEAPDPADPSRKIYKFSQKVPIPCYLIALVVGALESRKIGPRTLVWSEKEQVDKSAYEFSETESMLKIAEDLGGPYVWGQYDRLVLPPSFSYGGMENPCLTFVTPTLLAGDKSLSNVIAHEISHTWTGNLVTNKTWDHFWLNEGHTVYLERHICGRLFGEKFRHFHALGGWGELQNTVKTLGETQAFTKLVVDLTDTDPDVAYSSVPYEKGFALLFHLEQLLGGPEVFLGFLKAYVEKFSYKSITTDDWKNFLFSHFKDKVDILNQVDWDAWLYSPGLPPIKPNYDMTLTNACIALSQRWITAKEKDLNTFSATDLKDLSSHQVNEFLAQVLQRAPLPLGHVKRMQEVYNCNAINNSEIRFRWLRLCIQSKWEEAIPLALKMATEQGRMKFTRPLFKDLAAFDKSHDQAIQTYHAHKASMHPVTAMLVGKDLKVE
As to the kind of experiment: LTA4 hydrolase inhibition, LTB4 produced from LTA4 (guinea pig lung enzyme preparation), measured by HPLC. Type of test: biochemical. The settings on record: LTA4 63 μM; HEPES 50 mM, pH 7.8; enzyme preparation 0.4-0.6 mg protein; DTT 3 mM; 37° C., one minute; read-out: IC50 (concentration required to inhibit LTA4 hydrolase by 50%). The procedure:
Izumi et al. had reported a method of measuring LTA4 hydrolase activity by measuring an amount of LTB4 produced by an enzymatic reaction using LTA4 as a substrate (Biochem. Biophys. Res. Commun., 135, 139-145 (1986)). Effects of the present compounds on LTA4 hydrolase were examined according to the method described in the literature.
An enzyme preparation used in this pharmacological test was prepared by extracting roughly from guinea pig lung by the following method, according to the method of Izumi et al. (Biochem. Biophys. Res. Commun., 135, 139-145 (1986)) and the method of Evans et al. (Biochem. Biophys. Acta, 840, 43-50 (1985)).
Lungs were excised from Hartley guinea pigs (body weight: 330 g). The lungs were homogenized in phosphoric acid buffer (50 mM, pH 7.4, containing 1 mM ethylenediaminetetraacetic acid (EDTA) and 1 mM dithiothreitol (DTT)) having weight three times that of the lungs under ice-cooling. The homogenate was centrifuged at low speed (800×g) for 20 minutes, centrifuged at high speed (10,000×g) for 20 minutes and ultraccntrifugcd (100,000×g) for 60 minutes to give a supernatant. The supernatant was brought to 40% saturation by adding a saturated aqueous ammonium sulfate solution (pH 7.0-7.2, containing 1 mM DTT) dropwise under ice-cooling and centrifuged at high speed (10,000×g) for 20 minutes. The resulting supernatant was brought to 70% saturation by adding a saturated aqueous ammonium sulfate solution (pH 7.0-7.2, containing 1 mM DTT) dropwise and centrifuged at high speed (10,000×g) for 20 minutes. The obtained pellet was dissolved in 2 ml of Tris-acetic acid buffer (20 mM, pH 7.8, containing 1 mM DTT) and dialyzed in 2 liters of the solution to give the enzyme preparation.
LTA4 used, which is the substrate, was prepared by hydrolyzing LTA4 methyl ester and dissolved in ethanol.
In order to examine effects of the present compounds on the enzyme preparation, reactions were performed under the following condition using mixed solutions consisting of the composition shown in Table 1. […]
HEPES buffer 50 mM, pH 7.8
Enzyme preparation 0.4-0.6 mg protein
The above-mentioned solution (50 μl) was incubated at 37° C. for one minute. To the reaction mixture was added 100 μl of a mixed liquid of acetonitrile-ethanol-acetic acid (150:50:3, volume ratio) under ice-cooling. The mixture was allowed to stand at -20° C. for 30 minutes and centrifuged at high speed (10,000×g) for five minutes to give a supernatant. An amount of LTB4 produced in the supernatant was measured by high-speed liquid chromatography.
The degree of the inhibitory effect of each test compound on LTA4 hydrolase is expressed by the inhibition rate calculated by the following equation. [formula] Results
`C[C@H](CS)C(=O)N[C@@H](CSCc1ccc(N(C)C)cc1)C(=O)O` [Compound No. 3-1, (2R)-3-[4-(N,N-Dimethylamino)benzylthio]-2-[(2S)-3-mercapto-2-methylpropionylamino]propionic acid]: the IC50 was 240 nM. On to `CCC(CS)C(=O)N[C@@H](CSCc1ccc(N(C)C)cc1)C(=O)O` (mixture of isomers) [Compound No. 3-22, (2R)-3-[4-(N,N-Dimethylamino)benzylthio]-2-[(2RS)-2-ethyl-3-mercaptopropionylamino]propionic acid], for which the IC50 came to 400 nM.

Consider `C[C@H](S)C(=O)N[C@@H](CSCc1ccc(N(C)C)cc1)C(=O)O` [Compound No. 3-19, (2R)-3-[4-(N,N-Dimethylamino)benzylthio]-2-[(2S)-2-mercaptopropionylamino]propionic acid], for which the IC50 was 5600 nM. With `C[C@@H](CS)C(=O)N[C@@H](CSCc1ccc(N(C)C)cc1)C(=O)O` [Compound No. 3-21, (2R)-3-[4-(N,N-Dimethylamino)benzylthio]-2-[(2R)-3-mercapto-2-methylpropionylamino]propionic acid], the IC50 was 1500 nM. The same measure, in the same setting: for `CC(C)C(CS)C(=O)N[C@@H](CSCc1ccc(N(C)C)cc1)C(=O)O` (mixture of isomers) [Compound No. 3-24, (2R)-3-[4-(N,N-Dimethylamino)benzylthio]-2-[(2RS)-2-isopropyl-3-mercaptopropionylamino]propionic acid] the value was 1100 nM; for `CCN(CC)c1ccc(CSC[C@H](NC(=O)[C@H](C)CS)C(=O)O)cc1` [Compound No. 3-9, (2R)-3-[4-(N,N-Diethylamino)benzylthio]-2-[(2S)-3-mercapto-2-methylpropionyl]aminopropionic acid], 900 nM; for `CCOC(=O)[C@H](CSCc1ccc(N(C)C)cc1)NC(=O)[C@H](C)CS` [Compound No. 8-1, Ethyl (2R)-3-[4-(N,N-dimethylamino)benzylthio]-2-[(2S)-3-mercapto-2-methylpropionylamino]propionate], 590 nM. For `CN(C)c1ccc(CSC[C@H](NC(=O)C(CS)CCc2ccccc2)C(=O)O)cc1` (single isomer, unassigned) [Compound No. 3-27, (2R)-3-[4-(N,N-Dimethylamino)benzylthio]-2-[(2R or 2S)-2-phenetyl-3-mercaptopropionylamino]propionic acid], the IC50 worked out at 3800 nM. `CN(C)c1ccc(CSC[C@H](NC(=O)C(CS)CCc2ccccc2)C(=O)O)cc1` (single isomer, unassigned) [Compound No. 3-26, (2R)-3-[4-(N,N-Dimethylamino)benzylthio]-2-[(2S or 2R)-2-phenetyl-3-mercaptopropionylamino]propionic acid]: the IC50 worked out at 500 nM.

Take `CCCC(CS)C(=O)N[C@@H](CSCc1ccc(N(C)C)cc1)C(=O)O` (mixture of isomers) [Compound No. 3-23, (2R)-3-[4-(N,N-Dimethylamino)benzylthio]-2-[(2RS)-3-mercapto-2-propylpropionylamino]propionic acid]: the IC50 is 290 nM.

The subject of a further test is LTA4 hydrolase.
Assay: not given
The settings on record: JP-A 2-134375; J. Med. Chem., 37, 3197-3199 (1994); cited from earlier work.
`O=C(O)C1(c2ccc3c(c2)OC[C@H](Cc2ccc(-c4ccccc4)cc2)[C@H]3O)CCCC1` [(+)-1-(3S, 4R)-[3-(4-phenylbenzyl)-4-hydroxychroman-7-yl]cyclopentanecarboxylic acid]: the “LTA4 hydrolase inhibitory activity (reported, in words)” value was “LTA4 hydrolase inhibitory activity”. As for `O=C(O)c1cccc(C2CO2)c1` (stereo not shown) [3-Oxiranyl benzoic acid], the “LTA4 hydrolase inhibitory activity (reported, in words)” value is on record as “LTA4 hydrolase inhibitory activity”.

The subject of another test is arthritis in a collagen-induced arthritis model.
Assay: not given
To be noted: J. Med. Chem., 37, 3197-3199 (1994); cited from earlier work.
Consider `O=C(O)C1(c2ccc3c(c2)OC[C@H](Cc2ccc(-c4ccccc4)cc2)[C@H]3O)CCCC1` [(+)-1-(3S, 4R)-[3-(4-phenylbenzyl)-4-hydroxychroman-7-yl]cyclopentanecarboxylic acid], for which the “inhibition of sideration of arthritis (in words)” value was “inhibit sideration of arthritis”.
